Measurements from paper PMC7156612, “Olinciguat, an Oral sGC Stimulator, Exhibits Diverse Pharmacology Across Preclinical Models of Cardiovascular, Metabolic, Renal, and Inflammatory Disease” (Frontiers in Pharmacology, 2020).
Like-named read-outs stand apart in the source and are kept apart here.

Assays:
[1] = set-up: method as in Mittleman et al., 2017; conditions: healthy human subjects, ref Mittleman et al., 2017, cited from earlier work
[2] = Mouse TNFα-induced model of vascular inflammation; format: in vivo; conditions: male, C57BL/6, mouse, plasma, po; mice, 10 mg/kg p.o., at euthanasia; read-out: plasma concentration of olinciguat
Description: (§1) Male C57BL/6 mice (n=30, 22 g, 8 weeks) were studied. The TNFα/olinciguat group of mice (n=10) was administered 10 mg/kg olinciguat p.o., formulated in 0.1 ml 100% PEG, followed byintraperitoneal (i.p.) injection of 50 ng of mouse TNFα formulated in 0.5 ml pyrogen-free 0.9% NaCl solution one hour later. The TNFα/vehicle control group of mice (n=10) was treated with p.o. vehicle, followed by i.p. injection of 50 ng of mouse TNFα after one h. A naïve, non-treated control group of mice (n=10) was included in the study. […] Plasma levels of olinciguat were determined by LCMS. Plasma samples were diluted 1:300 for determination of sL-selectin, sP-selectin, sE-selectin, and sICAM-1 by ELISA.
(§2) In the vascular inflammation model, data were analyzed by one-way ANOVA, followed by Dunnett's multiple comparison to the TNFα-vehicle control.

[3] = test system: C57BL/6 mice treated with TNFα; assay: Mouse TNFα-induced model of vascular inflammation; format: in vivo; conditions: 10 mg/kg, total plasma concentration x 1.7% free
Description: as §1, §2

[4] = test system: human subcutaneous resistance arteries; assay: Human vascular smooth muscle relaxation (U46619-precontracted arteries); format: cell-based; conditions: for EC50: Homo sapiens
Description: The effect of olinciguat on relaxation of contracted human subcutaneous resistance arteries was determined according to methods described in ([Tobin et al., 2018]). In brief, human subcutaneous resistance arteries were obtained from three donors (females ages 27–51) undergoing elective surgeries. Arteries were mounted in a tissue bath and precontracted with the thromboxane mimetic, U46619 (100 nM). Only tissues containing functional endothelium, as determined by relaxation in response to acetylcholine (10 µM), were used. A cumulative concentration-response curve (0.1 to 10 µM) was generated for olinciguat, followed by addition of the NO donor sodium nitroprusside (100 μM). Percent relaxation at each olinciguat concentration was determined relative to the U46619-mediated contraction. Using GraphPad Prism v.7, a sigmoidal dose-response (variable slope) curve was fit with the bottom value constrained to zero to determine the EC50.

[5] = Pharmacokinetics in Sprague-Dawley rats; format: in vivo; conditions: rat, plasma; for bioavailability / Cmax / Tmax / half-life: po; for bioavailability: 1 mg/kg; for Cmax / Tmax / half-life: p.o. 1 mg/kg
Description: Male (n=12, 2 groups of 6) and female (n=12, 2 groups of 6) Sprague-Dawley rats (275–300 g) with indwelling jugular vein cannulae were fasted overnight prior to dosing. Animals were dosed either intravenously (i.v.) via bolus injection through a percutaneous catheter into a lateral tail vein or orally (p.o.) via gavage. Olinciguat was formulated in 60% polyethylene glycol (PEG) 400/40% water at 0.3 mg/ml (0.3 mg/kg) for i.v. dosing, and at 1 mg/ml (1 mg/kg) in 100% PEG 400 for p.o. dosing. Chow was returned to animals 4 h postdose.
Blood from i.v. and p.o. dosed rats was collected at 16 timepoints (2 groups of rats, 8 timepoints per group) over 24 h. Samples were collected into potassium ethylenediamine tetraacetic acid (K2EDTA) tubes, centrifuged (3,500 rpm for 10 min) to yield plasma. In the pharmacokinetic studies and in all in vivo studies, olinciguat plasma concentrations were determined by LC-MS/MS. Pharmacokinetic (PK) parameters were calculated by noncompartmental analysis using sparse sampling in Phoenix® WinNonLin® v.6.3 (Certara, Princeton, NJ).

## NC(=O)[C@](O)(CNc1nc(-c2cc(-c3ccon3)n(Cc3ccccc3F)n2)ncc1F)C(F)(F)F [olinciguat, (R)-3,3,3-trifluoro-2-(((5-fluoro-2-(1-(2-fluorobenzyl)-5-(isoxazol-3-yl)-1H-pyrazol-3-yl)pyrimidin-4-yl)amino)methyl)-2-hydroxypropanamide]
[1]; repeat dosing with oral tablets
  terminal-phase half-life: ~ 30 h
[1]
  renal clearance, percent of apparent total body clearance [CL/F]: ≤ 0.3%
[2]
  concentration at 5 h: 544 ± 61 nM
[3]
  Olinciguat concentration (free): 8.2–10.2 nM^f
[4]; 10 μM olinciguat, relative to U46619-mediated contraction
  mean relaxation at 10 μM: 94.8%
[4]; Table 2 summary, read-out: Human vascular relaxation EC50, olinciguat concentration (range = 95% CI)
  EC50: 16 to 38 nM
[4]; pre-contracted with U46619 100 nM, n=3 donors, 95% CI 16 to 38 nM, read-out: EC50, relaxation of pre-contracted arteries
  EC50: 24.3 nM
[5]; both sexes, Sprague-Dawley, intravenous, 0.3 mg/kg, male and female rats, mean, read-out: mean pharmacokinetic volume of distribution
  Vd: 1 L/kg
[5]; both sexes, Sprague-Dawley, rats, sexes not separated (discussion), read-out: oral bioavailability (rats, overall)
  bioavailability: 40%
[5]; iv, female Sprague Dawley rats, i.v. 0.3 mg/kg
  clearance: 5.6 mL/min/kg
[5]; iv, female Sprague Dawley rats, i.v. 0.3 mg/kg, read-out: Vss
  Vd: 0.9 L/kg
[5]; iv, male Sprague Dawley rats, i.v. 0.3 mg/kg
  clearance: 11.3 mL/min/kg
[5]; iv, male Sprague Dawley rats, i.v. 0.3 mg/kg, read-out: Vss
  Vd: 1.1 L/kg
[5]; female Sprague Dawley rats, read-out: Oral bioavailability
  bioavailability: 45%
[5]; male Sprague Dawley rats, read-out: Oral bioavailability
  bioavailability: 36%
[5]; female Sprague Dawley rats
  Cmax: 198 ng/mL
  Tmax: 3 h
  half-life: 3.9 h
[5]; male Sprague Dawley rats
  Cmax: 96.4 ng/mL
  Tmax: 1 h
  half-life: 3.5 h
